Measured values taken from ChEMBL document CHEMBL1136988, “1-amino-4-benzylphthalazines as orally bioavailable smoothened antagonists with antitumor activity” (J Med Chem, 2009).

Experiments:
[1] = Antitumor activity against mouse Ptch+/- p53-/- medulloblastoma cells xenografted Harlan nu/nu mouse at 5 mg/kg, po qd administered after 7 days tumor implantation measured after 12 days relative to control; type: functional, Medulloblastoma cell
Mus musculus [2] = assay: Toxicity in mouse Ptch+/- p53-/- medulloblastoma cells xenografted Harlan nu/nu mouse at 5 to 40 mg/kg, po qd administered after 7 days tumor implantation measured after 12 days; type: organism-based; set-up: dose 5-40 mg/kg, route oral; conditions: in vivo, 288 h
[3] = Oral bioavailability in nude mouse plasma at 5 mg/kg after 24 hrs; type: ADME, organism-based
[4] = AUC (0 to infinity) in nude mouse brain at 5 mg/kg, po after 24 hrs; type: ADME, organism-based; set-up: dose 5 mg/kg, route oral, time infinity
[5] = Tmax in nude mouse brain at 5 mg/kg, po after 24 hrs; type: ADME, organism-based; set-up: dose 5 mg/kg, route oral
[6] = Cmax in nude mouse brain at 5 mg/kg, po after 24 hrs; type: ADME, organism-based; set-up: dose 5 mg/kg, route oral
Mus musculus [7] = assay: Total body water content in nude mouse at 1 mg/kg, iv; type: ADME, organism-based; set-up: dose 1 mg/kg, route intravenous; conditions: in vivo
[8] = Clearance in nude mouse plasma at 1 mg/kg, iv after 24 hrs; type: ADME, organism-based; set-up: dose 1 mg/kg, route intravenous
[9] = Antitumor activity against mouse Ptch+/- p53-/- medulloblastoma cells xenografted Harlan nu/nu mouse at 10 mg/kg, po qd administered after 7 days tumor implantation measured after 12 days relative to control; type: functional, Medulloblastoma cell
[10] = Antitumor activity against mouse Ptch+/- p53-/- medulloblastoma cells xenografted Harlan nu/nu mouse at 5 mg/kg, po bid administered after 7 days tumor implantation measured after 12 days relative to control; type: functional, Medulloblastoma cell
Mus musculus [11] = assay: Hepatic blood flow in nude mouse at 1 mg/kg, iv; type: ADME, organism-based, Liver; set-up: dose 1 mg/kg, route intravenous; conditions: in vivo
[12] = Tmax in nude mouse plasma at 5 mg/kg, po after 24 hrs; type: ADME, organism-based; set-up: dose 5 mg/kg, route oral
[13] = Half life in nude mouse plasma at 1 mg/kg, iv after 24 hrs; type: ADME, organism-based; set-up: dose 1 mg/kg, route intravenous
Protein smoothened [14] = molecular target: T1, Protein smoothened (Mus musculus, UniProt P56726); type: cell-based, TM3
Description: Inhibition of Smoothened receptor in mouse TM3 cells transfected with pTA-8xGli-Luc reporter gene assessed as inhibition of 25 nM 3-chloro-4,7-difluoro-N-(4-methoxy-3-(pyridin-4-yl)benzyl)-N-(4-(methylamino)cyclohexyl)benzo[b]thiophene-2-carboxamide-induced Hedgehog pathway activation by Gli shift assay

[15] = Antitumor activity against mouse Ptch+/- p53-/- medulloblastoma cells xenografted Harlan nu/nu mouse assessed as tumor regression at 40 mg/kg, po bid administered after 7 days tumor implantation measured after 12 days; type: functional, Medulloblastoma cell
Medulloblastoma cell [16] = assay: Antitumor activity against mouse Ptch+/- p53-/- medulloblastoma cells xenografted po dosed Harlan nu/nu mouse assessed as tumor regression administered after 7 days tumor implantation measured after 12 days; type: functional, organism-based
[17] = AUC (0 to infinity) in nude mouse plasma at 5 mg/kg, po after 24 hrs; type: ADME, organism-based; set-up: time infinity, dose 5 mg/kg, route oral
Protein smoothened [18] = molecular target: Protein smoothened (Homo sapiens, UniProt Q99835); assay: Displacement of [3H]3-chloro-4,7-difluoro-N-(4-methoxy-3-(pyridin-4-yl)benzyl)-N-(4-(methylamino)cyclohexyl)benzo[b]thiophene-2-carboxamide from human Smoothened receptor expressed in CHO-K1 cells by membrane filter binding assay; type: cell-based
[19] = Antitumor activity against mouse Ptch+/- p53-/- medulloblastoma cells xenografted Harlan nu/nu mouse at 40 mg/kg, po qd administered after 7 days tumor implantation measured after 12 days relative to control; type: functional, Medulloblastoma cell
Protein smoothened [20] = molecular target: T1, Protein smoothened; assay: Displacement of [3H]3-chloro-4,7-difluoro-N-(4-methoxy-3-(pyridin-4-yl)benzyl)-N-(4-(methylamino)cyclohexyl)benzo[b]thiophene-2-carboxamide from mouse Smoothened receptor expressed in CHO-K1 cells by membrane filter binding assay; type: cell-based
[21] = Ratio of AUC (0 to infinity) in brain to AUC (0 to infinity) in plasma of nude mouse at 5 mg/kg, po after 24 hrs; type: ADME, organism-based; set-up: dose 5 mg/kg, route oral; conditions: read-out: Ratio AUC
[22] = Antitumor activity against mouse Ptch+/- p53-/- medulloblastoma cells xenografted Harlan nu/nu mouse at 10 mg/kg, po bid administered after 7 days tumor implantation measured after 12 days relative to control; type: functional, Medulloblastoma cell
Medulloblastoma cell [23] = assay: Inhibition of Gli mRNA expression in mouse medulloblastoma cells after 1 to 24 hrs by RT-PCR; type: functional
Medulloblastoma cell [24] = assay: Inhibition of Gli mRNA expression in mouse medulloblastoma cells at 40 mg/kg, po by RT-PCR; type: functional, organism-based; set-up: dose 40 mg/kg; conditions: TDE = time-dependent effect
[25] = Antitumor activity against mouse Ptch+/- p53-/- medulloblastoma cells xenografted Harlan nu/nu mouse at 20 mg/kg, po qd administered after 7 days tumor implantation measured after 12 days relative to control; type: functional, Medulloblastoma cell
[26] = Ratio of Cmax in brain to Cmax in plasma of nude mouse at 5 mg/kg, po after 24 hrs; type: ADME, organism-based; set-up: dose 5 mg/kg, route oral; conditions: read-out: Ratio_Cmax_brain/plasma
[27] = Antitumor activity against mouse Ptch+/- p53-/- medulloblastoma cells xenografted Harlan nu/nu mouse assessed as tumor regression at 20 mg/kg, po bid administered after 7 days tumor implantation measured after 12 days; type: functional, Medulloblastoma cell
Protein smoothened [28] = molecular target: T1, Protein smoothened; assay: Inhibition of Smoothened receptor in mouse TM3 cells transfected with pTA-8xGli-Luc reporter gene assessed as inhibition of 1 nM 3-chloro-4,7-difluoro-N-(4-methoxy-3-(pyridin-4-yl)benzyl)-N-(4-(methylamino)cyclohexyl)benzo[b]thiophene-2-carboxamide-induced Hedgehog pathway activation by Gli shift assay; type: cell-based
Mus musculus [29] = assay: Toxicity in mouse Ptch+/- p53-/- medulloblastoma cells xenografted Harlan nu/nu mouse assessed as change in body weight at 5 to 40 mg/kg, po qd administered after 7 days tumor implantation measured after 12 days; type: organism-based; set-up: dose 5-40 mg/kg, route oral; conditions: in vivo, 288 h
[30] = AUC (0 to infinity) in nude mouse plasma at 1 mg/kg, iv after 24 hrs; type: ADME, organism-based; set-up: time infinity, dose 1 mg/kg, route intravenous
[31] = Volume of distribution at steady state in nude mouse plasma at 1 mg/kg, iv after 24 hrs; type: ADME, organism-based; set-up: dose 1 mg/kg, route intravenous; conditions: read-out: Vdss
[32] = Cmax in nude mouse plasma at 5 mg/kg, po after 24 hrs; type: ADME, organism-based; set-up: dose 5 mg/kg, route oral
Medulloblastoma cell [33] = assay: Inhibition of Gli mRNA expression in mouse medulloblastoma cells at 5 mg/kg, po by RT-PCR; type: functional, organism-based; set-up: dose 5 mg/kg; conditions: TDE = time-dependent effect
Mus musculus [34] = assay: Toxicity in mouse Ptch+/- p53-/- medulloblastoma cells xenografted Harlan nu/nu mouse assessed as change in body weight at 5 to 40 mg/kg, po bid administered after 7 days tumor implantation measured after 12 days; type: organism-based; set-up: dose 5-40 mg/kg, route oral; conditions: in vivo, 288 h
Mus musculus [35] = assay: Toxicity in mouse Ptch+/- p53-/- medulloblastoma cells xenografted Harlan nu/nu mouse at 5 to 40 mg/kg, po bid administered after 7 days tumor implantation measured after 12 days; type: organism-based; set-up: dose 5-40 mg/kg, route oral; conditions: in vivo, 288 h

T1 sequence (P56726 whole entry): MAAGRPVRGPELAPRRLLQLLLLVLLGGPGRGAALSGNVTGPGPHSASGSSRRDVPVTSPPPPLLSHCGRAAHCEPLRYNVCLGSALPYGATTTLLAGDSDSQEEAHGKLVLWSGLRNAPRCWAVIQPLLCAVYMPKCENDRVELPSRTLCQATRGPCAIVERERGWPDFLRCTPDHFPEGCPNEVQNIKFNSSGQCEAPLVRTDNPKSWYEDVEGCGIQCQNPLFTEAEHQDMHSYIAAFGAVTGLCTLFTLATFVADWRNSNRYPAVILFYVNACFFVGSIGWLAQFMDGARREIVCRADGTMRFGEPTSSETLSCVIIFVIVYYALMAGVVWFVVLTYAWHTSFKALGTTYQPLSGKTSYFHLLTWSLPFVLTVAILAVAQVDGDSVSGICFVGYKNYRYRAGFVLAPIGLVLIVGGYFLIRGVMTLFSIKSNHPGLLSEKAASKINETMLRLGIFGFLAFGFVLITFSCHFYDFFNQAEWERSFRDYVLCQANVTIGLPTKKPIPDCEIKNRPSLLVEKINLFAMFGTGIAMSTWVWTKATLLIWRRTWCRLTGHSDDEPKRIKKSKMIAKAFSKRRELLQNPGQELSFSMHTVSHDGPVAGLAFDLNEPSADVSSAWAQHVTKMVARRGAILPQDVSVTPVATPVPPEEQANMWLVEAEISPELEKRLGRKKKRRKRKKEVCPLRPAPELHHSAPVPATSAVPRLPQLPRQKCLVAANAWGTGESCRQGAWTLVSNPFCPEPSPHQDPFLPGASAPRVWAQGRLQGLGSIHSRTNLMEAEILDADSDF
Sequence of Protein smoothened (Homo sapiens, UniProt Q99835) (Q99835 whole entry): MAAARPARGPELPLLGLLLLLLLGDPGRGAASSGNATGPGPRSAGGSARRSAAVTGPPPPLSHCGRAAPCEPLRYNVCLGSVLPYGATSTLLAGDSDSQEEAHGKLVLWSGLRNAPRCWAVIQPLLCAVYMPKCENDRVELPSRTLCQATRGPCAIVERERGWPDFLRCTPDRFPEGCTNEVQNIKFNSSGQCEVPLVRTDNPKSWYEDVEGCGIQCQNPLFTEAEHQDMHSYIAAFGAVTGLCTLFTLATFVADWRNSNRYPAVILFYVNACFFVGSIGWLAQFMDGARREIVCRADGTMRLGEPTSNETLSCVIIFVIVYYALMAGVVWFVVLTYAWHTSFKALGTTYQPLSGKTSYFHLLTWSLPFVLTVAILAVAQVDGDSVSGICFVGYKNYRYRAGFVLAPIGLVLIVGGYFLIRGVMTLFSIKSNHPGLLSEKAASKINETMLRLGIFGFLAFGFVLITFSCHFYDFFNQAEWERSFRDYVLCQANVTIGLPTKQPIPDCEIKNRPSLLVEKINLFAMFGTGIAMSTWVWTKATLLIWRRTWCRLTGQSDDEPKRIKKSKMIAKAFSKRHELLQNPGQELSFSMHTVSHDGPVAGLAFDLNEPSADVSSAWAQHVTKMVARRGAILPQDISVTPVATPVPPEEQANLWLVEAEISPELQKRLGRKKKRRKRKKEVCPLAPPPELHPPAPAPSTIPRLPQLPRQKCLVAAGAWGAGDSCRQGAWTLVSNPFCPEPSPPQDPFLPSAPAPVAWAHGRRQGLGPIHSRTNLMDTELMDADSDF

SMILES: CC(C)(O)c1ccc(N2CCN(c3nnc(Cc4ccccc4)c4ccccc34)CC2)nc1
- T/C [1]: 80%
- Activity (Mus musculus [2]): Non-toxic
- bioavailability [3]: 73%
- AUC(0-inf) [4]: 8.82 µM·h
- Tmax [5]: 15 min
- Cmax [6]: 2390 nM
- Activity (Mus musculus [7]): 0.7 L/kg
- clearance [8]: 5.24 mL/min/kg
- T/C [9]: 77%
- T/C [10]: 69%
- QH (Mus musculus [11]): 90 mL/min/kg
- Tmax [12]: 15 min
- half-life [13]: 31.8 min
- IC50 (Protein smoothened [14]): 35 nM
- T/C [15]: 71%
- Activity (Medulloblastoma cell [16]): Dose-dependent effect
- AUC(0-inf) [17]: 26.5 µM·h
- IC50 (Protein smoothened [18]): 8 nM
- T/C [19]: 19%
- IC50 (Protein smoothened [20]): 5 nM
- Kp at 24 h [21]: 0.33
- T/C [22]: 40%
- Activity (Medulloblastoma cell [23]): Dose-dependent effect
- Activity (Medulloblastoma cell [24]): tde
- T/C [25]: 45%
- Kp at 24 h [26]: 0.15
- T/C [27]: 15%
- IC50 (Protein smoothened [28]): 2.7 nM
- Activity (Mus musculus [29]): Non-toxic
- AUC(0-inf) [30]: 7.23 µM·h
- Vd [31]: 0.2 L/kg
- Cmax [32]: 15.7 µM
- Activity (Medulloblastoma cell [33]): tde
- Activity (Mus musculus [34]): Non-toxic
- Activity (Mus musculus [35]): Non-toxic
